In patent US20110117017A1, “PEPTIDES WITH PROPERTIES OF AN […] FOR THE ALPHA 1A […] RECEPTOR AND USES THEREOF” (priority 2006, published 2011):

Tests used:
alpha1a receptor = target: T1, alpha1a receptor (Homo sapiens, UniProt P35348); assay: displacement of 3H-prazosin binding to the alpha1a receptor (yeast membranes)
T1 construct: made in house; host or cells: Pichia pastoris (membranes)
T1 sequence (P35348 1-466): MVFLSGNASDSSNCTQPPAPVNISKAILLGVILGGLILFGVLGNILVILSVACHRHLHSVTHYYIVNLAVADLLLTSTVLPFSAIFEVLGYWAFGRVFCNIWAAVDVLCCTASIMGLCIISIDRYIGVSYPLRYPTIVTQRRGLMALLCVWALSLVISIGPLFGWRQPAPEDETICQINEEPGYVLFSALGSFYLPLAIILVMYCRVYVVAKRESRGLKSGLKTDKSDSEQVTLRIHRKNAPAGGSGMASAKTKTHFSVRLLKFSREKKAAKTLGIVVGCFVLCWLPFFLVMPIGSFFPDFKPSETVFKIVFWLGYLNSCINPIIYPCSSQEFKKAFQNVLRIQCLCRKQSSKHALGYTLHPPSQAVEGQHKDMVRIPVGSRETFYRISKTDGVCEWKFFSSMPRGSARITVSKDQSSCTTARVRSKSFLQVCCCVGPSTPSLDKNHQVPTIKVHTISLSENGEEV

[1] = target: T2, alpha1a adrenergic receptor (Homo sapiens, UniProt P35348); assay: hot saturation of 125I-AdTx1 on yeast membranes expressing the alpha1a adrenergic receptor
T2 sequence (P35348 1-466): T1 sequence (P35348 1-466)
Procedure: The analysis of the saturation of the alpha1a adrenergic receptor with AdTx1 is carried out by incubating increasing concentrations of the iodinated peptide in the presence of 20 μg of membranes containing the alpha1a adrenergic receptor, for 20 h, and then measuring the radioactivity as above.

[2] = target: T2, alpha1a adrenergic receptor
alpha1b receptor = target: T3, alpha1b receptor (Homo sapiens, UniProt P35368); assay: displacement of 3H-prazosin binding to the alpha1b receptor (yeast membranes)
T3 construct: made in house; host or cells: Pichia pastoris (membranes)
T3 sequence (P35368 1-520): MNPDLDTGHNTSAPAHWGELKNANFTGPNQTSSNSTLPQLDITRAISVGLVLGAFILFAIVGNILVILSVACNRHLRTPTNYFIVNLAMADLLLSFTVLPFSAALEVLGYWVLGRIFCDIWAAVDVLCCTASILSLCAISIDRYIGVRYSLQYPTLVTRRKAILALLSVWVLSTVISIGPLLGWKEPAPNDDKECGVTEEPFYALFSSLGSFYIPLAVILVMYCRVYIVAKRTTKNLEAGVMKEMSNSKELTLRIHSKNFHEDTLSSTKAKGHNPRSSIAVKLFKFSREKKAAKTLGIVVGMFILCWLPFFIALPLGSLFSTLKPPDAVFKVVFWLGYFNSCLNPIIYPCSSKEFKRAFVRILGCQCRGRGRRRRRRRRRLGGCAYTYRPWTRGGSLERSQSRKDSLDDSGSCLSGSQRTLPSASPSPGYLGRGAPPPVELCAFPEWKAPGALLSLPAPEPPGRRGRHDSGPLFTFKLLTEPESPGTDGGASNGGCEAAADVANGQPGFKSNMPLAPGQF

alpha1d receptor = target: T4, alpha1d receptor (Homo sapiens, UniProt P25100); assay: displacement of 3H-prazosin binding to the alpha1d receptor (yeast membranes)
T4 construct: made in house; host or cells: Pichia pastoris (membranes)
T4 sequence (P25100 1-572): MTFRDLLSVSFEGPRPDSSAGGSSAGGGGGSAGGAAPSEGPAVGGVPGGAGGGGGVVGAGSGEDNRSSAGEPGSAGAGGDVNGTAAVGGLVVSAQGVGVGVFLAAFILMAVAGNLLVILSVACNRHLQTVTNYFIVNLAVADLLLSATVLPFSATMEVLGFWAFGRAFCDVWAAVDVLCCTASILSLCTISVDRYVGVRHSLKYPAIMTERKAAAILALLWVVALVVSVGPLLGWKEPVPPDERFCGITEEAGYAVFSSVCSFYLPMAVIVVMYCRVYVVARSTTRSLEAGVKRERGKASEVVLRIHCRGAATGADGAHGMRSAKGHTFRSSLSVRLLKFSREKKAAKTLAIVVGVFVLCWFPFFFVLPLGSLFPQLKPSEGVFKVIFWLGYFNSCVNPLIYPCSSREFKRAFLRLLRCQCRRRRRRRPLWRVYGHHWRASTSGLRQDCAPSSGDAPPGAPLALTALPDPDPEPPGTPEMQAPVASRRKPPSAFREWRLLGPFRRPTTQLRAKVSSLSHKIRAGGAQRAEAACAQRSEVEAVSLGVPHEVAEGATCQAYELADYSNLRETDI

beta1 receptor = target: T5, beta1 receptor (Homo sapiens, UniProt P08588); assay: displacement of 3H-CGP12177 binding to the beta1 receptor (yeast membranes)
T5 construct: made in house; host or cells: Pichia pastoris (membranes)
T5 sequence (P08588 whole entry): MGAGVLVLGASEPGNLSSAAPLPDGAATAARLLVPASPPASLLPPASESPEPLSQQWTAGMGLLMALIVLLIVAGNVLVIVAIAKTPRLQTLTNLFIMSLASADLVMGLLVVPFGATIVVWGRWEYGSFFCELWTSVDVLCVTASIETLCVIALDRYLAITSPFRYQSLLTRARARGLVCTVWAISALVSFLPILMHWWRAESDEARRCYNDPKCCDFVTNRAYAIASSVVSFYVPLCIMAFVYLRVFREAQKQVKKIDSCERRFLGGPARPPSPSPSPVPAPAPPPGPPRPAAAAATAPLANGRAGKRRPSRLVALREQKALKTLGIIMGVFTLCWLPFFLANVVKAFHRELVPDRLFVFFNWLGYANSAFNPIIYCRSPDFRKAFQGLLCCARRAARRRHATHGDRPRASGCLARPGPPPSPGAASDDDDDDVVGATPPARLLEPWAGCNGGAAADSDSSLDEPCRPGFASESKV

α2a adrenergic receptor = target: T6, α2a adrenergic receptor (Homo sapiens, UniProt P08913); assay: displacement of 3H-rauwolscine binding to the alpha2a subtype (yeast membranes)
T6 construct: made in house; host or cells: Pichia pastoris (membranes)
T6 sequence (P08913 1-465): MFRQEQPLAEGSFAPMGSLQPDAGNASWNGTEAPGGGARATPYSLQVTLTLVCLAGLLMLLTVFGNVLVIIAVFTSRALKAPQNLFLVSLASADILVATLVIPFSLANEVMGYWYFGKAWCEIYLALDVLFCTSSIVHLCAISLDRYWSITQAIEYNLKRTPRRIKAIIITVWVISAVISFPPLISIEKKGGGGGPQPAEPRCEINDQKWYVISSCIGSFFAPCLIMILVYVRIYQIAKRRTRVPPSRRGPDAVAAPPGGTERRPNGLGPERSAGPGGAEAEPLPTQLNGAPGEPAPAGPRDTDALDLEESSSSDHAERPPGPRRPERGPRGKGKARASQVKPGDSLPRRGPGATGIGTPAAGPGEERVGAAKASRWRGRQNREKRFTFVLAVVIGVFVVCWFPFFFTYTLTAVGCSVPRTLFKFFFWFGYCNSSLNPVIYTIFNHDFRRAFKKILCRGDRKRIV

With `CC[C@H](C)[C@@H]1NC(=O)CNC(=O)[C@H](Cc2ccccc2)NC(=O)[C@H]([C@@H](C)CC)NC(=O)[C@H](CO)NC(=O)[C@H](CCCCN)NC(=O)[C@H](CO)NC(=O)[C@H]([C@@H](C)O)NC(=O)[C@H](C(C)C)NC(=O)[C@@H](NC(=O)[C@@H](NC(=O)[C@@H](N)CC(C)C)[C@@H](C)O)CSSC[C@@H]2NC(=O)[C@H](CC(C)C)NC(=O)[C@H](CC(N)=O)NC(=O)[C@H](CCC(N)=O)NC(=O)CNC(=O)[C@H](CC(=O)O)NC(=O)[C@@H]3CCCN3C(=O)[C@H](CSSC[C@@H](C(=O)N[C@@H](C)C(=O)N[C@@H](C)C(=O)N[C@H](C(=O)N[C@H]3CSSC[C@@H](C(=O)N[C@H]4CSSC[C@@H](C(=O)N[C@@H](CC(N)=O)C(=O)N[C@@H](CCC(=O)O)C(=O)O)NC(=O)[C@H](CCCCN)NC(=O)[C@H](CC(=O)O)NC(=O)[C@H]([C@@H](C)O)NC(=O)[C@H](CCCCN)NC4=O)NC(=O)[C@H](Cc4c[nH]cn4)NC(=O)[C@H]([C@@H](C)CC)NC(=O)[C@H](CO)NC(=O)[C@H](CC(=O)O)NC(=O)[C@H](Cc4ccc(O)cc4)NC(=O)[C@H](CC(N)=O)NC(=O)[C@H](CCC(=O)O)NC(=O)[C@@H]4CCCN4C(=O)[C@H]([C@@H](C)CC)NC(=O)[C@@H]4CCCN4C3=O)[C@@H](C)O)NC(=O)CNC(=O)[C@H](CCCNC(=N)N)NC(=O)[C@H]([C@@H](C)O)NC(=O)[C@H](CO)NC(=O)[C@H](CC(=O)O)NC(=O)[C@H](Cc3ccc(O)cc3)NC(=O)[C@H]([C@@H](C)CC)NC(=O)[C@H](CCCCN)NC(=O)[C@@H]3CCCN3C(=O)[C@H](C(C)C)NC(=O)[C@H](C(C)C)NC(=O)[C@H](Cc3ccc(O)cc3)NC(=O)[C@H](Cc3c[nH]cn3)NC(=O)[C@H](CCCNC(=N)N)NC(=O)[C@H](CCCNC(=N)N)NC(=O)[C@H](CCCCN)NC(=O)[C@H](Cc3ccccc3)NC2=O)NC(=O)[C@H](CC(=O)O)NC(=O)[C@H](CCC(=O)O)NC(=O)[C@H]([C@@H](C)O)NC(=O)[C@H]([C@@H](C)O)NC1=O` [AdTx1] the IC50 (alpha1a receptor) was 0.0018 µM, the Kd [1] was 0.0008 ± 0.0002 µM and the IC50 [2] was 0.0005 µM. It also gave an IC50 (alpha1b receptor) of 2.3 µM, an IC50 (alpha1d receptor) of 9.9 µM and an IC50 (beta1 receptor) greater than 50 µM. It also gave an IC50 (α2a adrenergic receptor) greater than 50 µM.
